Test results as given in patent US10206399B2, “Herbicidal composition comprising uracil compound as active ingredient” (Dongbu Farm Hannong Co., Ltd., priority 2012, dated 2019).
Like-named read-outs stand apart in the source and are kept apart here.

Assays:
[1] = system: Abutilon theophrasti; experiment: whole plant or invertebrate; settings: for pest or weed control at 50 g/ha: read-out: Data (measured value) Abutilon theophrasti, 50 g/ha; for pest or weed control at 100 g/ha: read-out: Data (measured value) Abutilon theophrasti, 100 g/ha
From the text: (§1) X is % damage by uracil compound (a) of formula 1 at the rate of application of p kg/ha; Y is % damage by conventional herbicidal compound (b) at the rate of application of q kg/ha; and E is the expected damage caused by compounds (a) and (b) at a rate of application of p and q kg/ha.
(§2) The expected activity for a given combination of two herbicides can be calculated using equation 1 above.

[2] = system: Aeschynomene indica; experiment: whole plant or invertebrate; settings: for pest or weed control at 50 g/ha: read-out: Data (measured value) Aeschynomene indica, 50 g/ha; for pest or weed control at 100 g/ha: read-out: Data (measured value) Aeschynomene indica, 100 g/ha
From the text: as §1, §2

[3] = system: Xanthium spinosum; experiment: whole plant or invertebrate; settings: for pest or weed control at 50 g/ha: read-out: Data (measured value) Xanthium spinosum, 50 g/ha; for pest or weed control at 100 g/ha: read-out: Data (measured value) Xanthium spinosum, 100 g/ha
From the text: as §1, §2

[4] = system: Digitaria sanguinalis; settings: for Digitaria sanguinalis mortality, measured value: 20 days after treatment
From the text: as §1, §2

[5] = system: Echinochloa crus; settings: for Echinochloa crus mortality, measured value: 20 days after treatment
From the text: as §1, §2

[6] = 480 h, read-out: Abutilon theophrasti mortality, measured value
[7] = 480 h, read-out: Aeschynomene indica mortality, measured value
[8] = 480 h, read-out: Xanthium spinosum mortality, measured value

Structure (SMILES)	mortality at 50 g/ha [1, 6]	mortality at 100 g/ha [1, 6]	mortality at 50 g/ha [2, 7]	mortality at 100 g/ha [2, 7]	mortality at 50 g/ha [3, 8]	mortality at 100 g/ha [3, 8]	Digitaria sanguinalis mortality, measured value ([4]; 50 g/ha)	Digitaria sanguinalis mortality, measured value ([4]; 100 g/ha)	Echinochloa crus mortality, measured value ([5]; 50 g/ha)	Echinochloa crus mortality, measured value ([5]; 100 g/ha)	pest or weed control at 50 g/ha [1]	pest or weed control at 100 g/ha [1]	pest or weed control at 50 g/ha [2]	pest or weed control at 100 g/ha [2]	pest or weed control at 50 g/ha [3]	pest or weed control at 100 g/ha [3]	Data (measured value) Digitaria sanguinalis ([4]; 50 g/ha)	Data (measured value) Digitaria sanguinalis ([4]; 100 g/ha)	Data (measured value) Echinochloa crus ([5]; 50 g/ha)	Data (measured value) Echinochloa crus ([5]; 100 g/ha)	further results
CC(Oc1ccc(Oc2ccc(C(F)(F)F)cn2)cc1)C(=O)O (stereo not drawn) [Fluazifop, reference compound]	0%	0%	0%	0%	0%	0%	9%	21%	10%	26%											mortality at 200 g/ha [1, 6]: 0%; mortality at 200 g/ha [2, 7]: 0%; mortality at 200 g/ha [3, 8]: 0%; Digitaria sanguinalis mortality, measured value ([4]; 200 g/ha): 52%; Echinochloa crus mortality, measured value ([5]; 200 g/ha): 61%
CC(Oc1ccc(Oc2nc3ccc(Cl)cc3o2)cc1)C(=O)O (stereo not drawn) [Fenoxaprop, reference compound]	0%	0%	0%	0%	0%	0%	32%	64%	31%	65%											mortality at 25 g/ha [1, 6]: 0%; mortality at 25 g/ha [2, 7]: 0%; mortality at 25 g/ha [3, 8]: 0%; Digitaria sanguinalis mortality, measured value ([4]; 25 g/ha): 13%; Echinochloa crus mortality, measured value ([5]; 25 g/ha): 13%
COC(=O)CCNC(=O)C(C)Oc1cc(-n2c(=O)cc(C(F)(F)F)n(C)c2=O)c(F)cc1Cl (stereo not drawn) [Compound 1, 3-[{2-[2-chloro-5-(3,6-dihydro-3-methyl-2,6-dioxo-4-trifluoromethyl-1(2H)-pyrimidinyl)-4-fluorophenoxy]-1-oxopropyl}amino]propionic acid methyl ester]																					mortality at 4 g/ha [1, 6]: 17%; mortality at 8 g/ha [1, 6]: 45%; mortality at 16 g/ha [1, 6]: 60%; mortality at 4 g/ha [2, 7]: 18%; mortality at 8 g/ha [2, 7]: 45%; mortality at 16 g/ha [2, 7]: 60%; mortality at 4 g/ha [3, 8]: 11%; mortality at 8 g/ha [3, 8]: 39%; mortality at 16 g/ha [3, 8]: 52%; Digitaria sanguinalis mortality, measured value ([4]; 4 g/ha): 0%; Digitaria sanguinalis mortality, measured value ([4]; 8 g/ha): 5%; Digitaria sanguinalis mortality, measured value ([4]; 16 g/ha): 20%; Echinochloa crus mortality, measured value ([5]; 4 g/ha): 0%; Echinochloa crus mortality, measured value ([5]; 8 g/ha): 5%; Echinochloa crus mortality, measured value ([5]; 16 g/ha): 17%
Nc1c(Cl)c(F)nc(OCC(=O)O)c1Cl [Fluroxypyr]											9%	26%	13%	27%	7%	23%	0	0	0	0	pest or weed control at 200 g/ha ([1]; read-out: Data (measured value) Abutilon theophrasti, 200 g/ha): 53%; pest or weed control at 200 g/ha ([2]; read-out: Data (measured value) Aeschynomene indica, 200 g/ha): 63%; pest or weed control at 200 g/ha ([3]; read-out: Data (measured value) Xanthium spinosum, 200 g/ha): 54%; Data (measured value) Digitaria sanguinalis ([4]; 200 g/ha): 0; Data (measured value) Echinochloa crus ([5]; 200 g/ha): 0
Nc1c(Cl)c(Cl)nc(C(=O)O)c1Cl [Picloram]											28%	65%	21%	52%	26%	56%	0	0	0	0	pest or weed control at 25 g/ha ([1]; read-out: Data (measured value) Abutilon theophrasti, 25 g/ha): 9%; pest or weed control at 25 g/ha ([2]; read-out: Data (measured value) Aeschynomene indica, 25 g/ha): 9%; pest or weed control at 25 g/ha ([3]; read-out: Data (measured value) Xanthium spinosum, 25 g/ha): 9%; Data (measured value) Digitaria sanguinalis ([4]; 25 g/ha): 0; Data (measured value) Echinochloa crus ([5]; 25 g/ha): 0
